# In patent US20050203063A1, “Proteasome pathway inhibitors and related methods” (priority 2003, published 2005):
# Key:
# [1] = test system: cyclin-luciferase (cyc-luc) turnover, APC/C activation; experiment: cyc-luc turnover in interphase Xenopus extracts induced to enter mitosis by non-degradable cyclin B; type: biochemical; conditions: 200 μM compound; added to interphase extracts then induced to enter mitosis; average of three measurements
# Protocol: (§1) FIG. 1. Functional classification of inhibitors. Compounds that scored in the initial screen were reacquired as dry powders and retested in Xenopus extracts in 4 assays at 200 μM concentration (32) as described (6). […] (A) Compounds and cyclin-luciferase were added to interphase extracts, which were then induced to enter mitosis by addition of non-degradable cyclin B. Percent inhibition of cyc-luc turnover by each compound is coded according to the grayscale shown at the bottom of the figure; specific values are available in Table 1. (B) Extracts were pre-treated with non-degradable cyclin B to allow entry into mitosis prior to addition of test compound and reporter protein. (C) Interphase extracts were treated by addition of recombinant Cdh1 to activate cyc-luc turnover. (D) Interphase extracts were treated with recombinant axin to induce turnover of β-catenin-luciferase.
# (§2) The “Cmpd” column corresponds to the numbers used in FIG. 1; “Class” refers to the class of inhibitor described in FIG. 1 and the text. Columns A-D show percent inhibition in the four assays described in FIG. 1. (A) Interphase extracts (B) Mitotic extracts (C) Interphase extracts stimulated with Cdh1 (D) Degradation of a β-catenin reporter protein in interphase extracts stimulated with recombinant axin. […] “ID#” refers to the identification number of the inhibitor obtained from the NCI (prefaced by NSC) or Chembridge (prefaced by C).
# Extracts were rapidly thawed and diluted to a final concentration of 75% in extract buffer (XB) just prior to assay (XB; 100 mM KCl, 0.1 mM CaCl2, 1 mM MgCl2, 10 mM potassium HEPES, pH 7.7, 50 mM sucrose). Extracts were kept on ice and supplemented with 1 mg/ml bovine ubiquitin (Sigma) unless otherwise stated. Cyc-luc expressed in reticulocyte lysate was diluted 1/200 for most assays. High-throughput screening utilized the bacterially expressed and purified cyclin-luc fusion protein, which was added to extracts at a final concentration of 0.1 μg/ml. To induce entrance into mitosis, cyclin BΔ90 protein was added to a final concentration of 10 μg/ml. For the dose response analysis, inhibitors were purchased from Calbiochem (San Diego, Calif.) and dissolved in DMSO as 10 mM stocks. Cyclin-luciferase and cyclin BΔ90 were mixed with interphase extract and placed on ice. Inhibitors were then added to extracts to yield a final DMSO concentration of 1%. 10 μl aliquots of extract were distributed into 384-well white Cliniplates (Labsystems), and cell cycle progression was initiated by warming the samples to room temperature. After 60 minutes, 30 μl of luciferin reagent (20 mM tricine pH 7.8, 470 μM D-Luciferin [Molecular Probes]), 270 μM Coenzyme A, 0.1 mM EDTA, 33 mM DTT, and 530 μM ATP) was added using a multidrop dispenser (Labsystems). Luminescence was measured on an Analyst plate reader (LJL Biosystems). The values for 3 replicates were averaged. For the dose response analysis, percent inhibition was calculated as 100*(T−M)/(I−M) where T equals the test value for the inhibitor, M equals the value in a mitotic extract lacking inhibitor, and I equals the value in an interphase extract. For certain experiments, methylated ubiquitin was added to interphase extracts at a concentration of 1 mg/ml in the presence or absence of added unmodified ubiquitin (1 mg/ml) used as competitor. Cyclin-luciferase and cyclin BΔ90 were then added. After 60 minutes, the reactions were stopped and analyzed as described above.
# Dry compounds were redissolved at 20 mM concentration in DMSO, or a 50:50 water:DMSO mixture in certain cases. These compounds were then diluted ten-fold in XB and mixed thoroughly. For the assay in FIG. 1A, chilled interphase extract was mixed with cyclin BΔ90 (10 μg/ml) and cyc-luc (0.1 μg/ml) in bulk and then 27 μl of extract was pipetted to each well of a chilled 384-well plate.
# [2] = test system: cyclin-luciferase (cyc-luc) turnover, activated APC/C; experiment: cyc-luc turnover in mitotic Xenopus extracts (pre-treated with non-degradable cyclin B); type: biochemical; conditions: 200 μM compound; extracts in mitosis before addition of compound
# Protocol: as §1, §2
# Dry compounds were redissolved at 20 mM concentration in DMSO, or a 50:50 water:DMSO mixture in certain cases. These compounds were then diluted ten-fold in XB and mixed thoroughly. For the assay in FIG. 1A, chilled interphase extract was mixed with cyclin BΔ90 (10 μg/ml) and cyc-luc (0.1 μg/ml) in bulk and then 27 μl of extract was pipetted to each well of a chilled 384-well plate. Three microliters of each compound (diluted in XB) was then added to each well, and then compounds mixed thoroughly. Plates were warmed to room temperature. After 70 minutes, 5 μl aliquots were transferred to another plate, and then 30 μl of luciferin reagent was added to each well and luminescence measured. Percent inhibition was calculated as described above. The reported values represent the average of three independent measurments. For the assay in FIG. 1B, interphase extracts were treated with 10 μg/cyclin B 90 for 50 minutes at room temperature and then chilled on ice. Cyc-luc was then added, and then 27 μl of extract was pipetted to each well of a chilled 384-well plate. Three microliters of each compound (diluted in XB) was then added to each well, and then compounds mixed thoroughly. Plates were warmed to room temperature. After 60 minutes, 5 μl aliquots were transferred to another plate, and then 30 μl of luciferin reagent was added to each well and luminescence measured. For the assay in FIG. 1C, recombinant Cdh1 (0.1 μg/ml) and cyc-luc were added to chilled interphase extracts. Extracts were then pipetted and compounds added as above. Plates were warmed to room temperature and incubated for three hours, following which luminescence was measured as above. For the assay in FIG. 1D, chilled interphase extracts received recombinant axin and beta-catenin-luciferase reporter as described (8). Extracts were aliquoted to chilled plates and compounds distributed as described above. Plates were warmed to room temperature, incubated for three hours, and luminescence measured.
SMILES,"percent inhibition of cyc-luc turnover, (A) Interphase extracts [1] [%]","percent inhibition of cyc-luc turnover, (B) Mitotic extracts [2] [%]"
O=C(Nc1ccc(/C=C/c2ccc(NC(=O)c3cc(S(=O)(=O)O)c4cccnc4c3O)cc2S(=O)(=O)O)c(S(=O)(=O)O)c1)c1cc(S(=O)(=O)O)c2cccnc2c1O [Compound 92],60,22
O=S(=O)(O)c1ccc2cc3c(cc2c1)NN(c1ccc(/C=C/c2ccc(N4Nc5cc6ccc(S(=O)(=O)O)cc6cc5N4)cc2S(=O)(=O)O)c(S(=O)(=O)O)c1)N3 [Compound 59],97,100
CC(=O)Nc1ccc(SSc2ccc(NC(C)=O)c3cccnc23)c2ncccc12 [Compound 23],100,100
